Values quoted from earlier work as cited in US20260356885A1, “PROCESS FOR MANUFACTURING AN ANTIBIOTIC MACROCYCLIC PEPTIDE” (Hoffmann-La Roche Inc., priority 2022, published 2026).

Test system: Acinetobacter baumannii
Settings: statement in words, as discussed in WO2019206853; no test or value given

CN1C(=O)[C@H](CCCCN)NC(=O)[C@H](CCCN)NCc2cccnc2Sc2cccc(-c3ccc(C(=O)O)cc3)c2CNC(=O)[C@@H]1Cc1c[nH]c2ccccc12 [compound of formula (I), 4-[(11S,14S,17S)-14-(4-Aminobutyl)-11-(3-aminopropyl)-17-(1H-indol-3-ylmethyl)-16-methyl-12,15,18-trioxo-2-thia-4, 10, 13, 16, 19-pentazatricyclo[19.4.0.03,8]pentacosa-1 (25),3 (8), 4,6,21,23-hexaen-22-yl]benzoic acid]
antibiotic action, selective against Acinetobacter baumannii: potent antibiotic with selective action against Acinetobacter baumannii
